Experimental data reported in PMC4865847, “Putative histidine kinase inhibitors with antibacterial effect against multi-drug resistant clinical isolates identified by in vitro and in silico screens” (Scientific Reports, 2016).
Values after ≈ are worked out from the molar mass of the structure shown. Where two headings read alike, the source gives them in different places.

Columns and labels:
E. coli PhoR (PhoR^E) = molecular target: T1, E. coli PhoR (PhoR^E) (Escherichia coli, UniProt P08400); experiment: In vitro autophosphorylation kinase assay with γ-32P-ATP, PhoR^E; type: biochemical; settings: for IC50: autophosphorylation, one time point (30 sec), 10% DMSO; for inhibition at 2000 µM: 2 mM, 30 sec, compared to negative control
T1 construct: The catalytic portion (DHp and CA domain) of E. coli PhoR (PhoR^E); made in house; host or cells: E. coli RIL
T1 sequence (P08400 210-425): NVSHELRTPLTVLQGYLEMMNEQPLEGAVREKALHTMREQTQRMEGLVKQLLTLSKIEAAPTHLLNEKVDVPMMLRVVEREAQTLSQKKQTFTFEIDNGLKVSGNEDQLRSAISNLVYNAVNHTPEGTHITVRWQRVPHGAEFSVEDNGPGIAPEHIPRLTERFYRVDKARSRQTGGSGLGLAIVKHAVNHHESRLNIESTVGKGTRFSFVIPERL
Protocol: (§1) To evaluate the inhibitory capacity of selected hits from DSF, SBVS and LBSS in vitro autophosphorylation kinase assays with γ-^32P-ATP were performed as previously described. Ligands were dissolved in 100% DMSO. […] Controls lacking ligands contained an equal concentration of DMSO. Inhibition of autophosphorylation was determined by incubating 0.12 mg/ml (≈4 μM) HK and up to 20 mM fragment in kinase buffer (50 mM Tris HCl, pH 8.5, 50 mM KCl, 5 mM MgCl2, 0.5 mM EDTA and 0.1 mM DTT). Autophosporylation reactions were initiated by addition of 0.1 μCi/μl γ-^32P-ATP containing from 0.03 to 0.06 μM ATP (final concentrations). Autophosphorylation was quenched with 2xSDS-PAGE sample buffer supplemented with 50 mM EDTA. […] After electrophoresis, the bottoms of the gels were removed to lower the background from the unincorporated radiolabeled ATP. Gels were dried without staining on a Bio-Rad Gel Air drying system and the phosphorylated protein was quantified by phosphor-imaging. Prism GraphPad was used for curve fitting and statistical analysis.

S. pneumoniae WalK = molecular target: T2, S. pneumoniae WalK (Streptococcus pneumoniae, UniProt Q8DPL8); experiment: In vitro autophosphorylation kinase assay with γ-32P-ATP, WalK; type: biochemical; settings: autophosphorylation, one time point (30 sec), 10% DMSO
T2 construct: WalK (amino acids from 208 to 449); N-terminal His6-3C site of vector pOPINF (own knowledge of the vector); made in house; host or cells: E. coli RIL
T2 sequence (Q8DPL8 208-449): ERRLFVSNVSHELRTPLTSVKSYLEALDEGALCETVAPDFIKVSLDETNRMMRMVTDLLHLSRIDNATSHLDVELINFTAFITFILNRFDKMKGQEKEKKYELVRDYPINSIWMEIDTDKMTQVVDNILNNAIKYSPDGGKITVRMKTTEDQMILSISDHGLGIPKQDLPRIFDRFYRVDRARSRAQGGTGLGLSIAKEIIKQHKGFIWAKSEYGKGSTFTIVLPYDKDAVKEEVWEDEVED
Protocol: as §1

Staphylococcus aureus = experiment: Antibacterial susceptibility testing (MIC/MBC), S. aureus; type: cell-based; settings: Staphylococcus aureus
Protocol: (§2) Minimal inhibitory concentrations (MICs) were determined following a standard double-dilution method. […] For S. pneumoniae MICs were determined by adapting the standard double-dilution method to anaerobic conditions and of this microorganism (use of Todd Hewitt Yeast extract with 200 U/mL of catalase and continuous monitoring of growth).

Escherichia coli = experiment: Antibacterial susceptibility testing (MIC/MBC), E. coli; type: cell-based; settings: Escherichia coli; for MIC: read-out: MIC E. coli CFT 073
Protocol: as §2

[1] = test system: Staphylococcus epidermidis; experiment: Antibacterial susceptibility testing (MIC/MBC), S. epidermidis; type: cell-based; settings: Staphylococcus epidermidis
Protocol: as §2

S. aureus PhoR (PhoR^S) = S. aureus PhoR (PhoR^S) (Staphylococcus aureus, UniProt Q2FXN7); experiment: In vitro autophosphorylation kinase assay with γ-32P-ATP, PhoR^S; type: biochemical; settings: for IC50: autophosphorylation, one time point (30 sec), 10% DMSO; for inhibition at 2000 µM: read-out: inhibition of PhoR^S autophosphorylation
S. aureus PhoR (PhoR^S), sequence (Q2FXN7 entry or part of it): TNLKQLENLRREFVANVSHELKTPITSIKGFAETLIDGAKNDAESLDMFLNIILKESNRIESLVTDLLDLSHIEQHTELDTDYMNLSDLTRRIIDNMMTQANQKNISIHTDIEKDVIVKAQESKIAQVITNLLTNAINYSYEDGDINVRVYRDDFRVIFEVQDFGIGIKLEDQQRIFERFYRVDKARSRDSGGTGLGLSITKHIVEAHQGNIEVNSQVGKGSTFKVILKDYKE
Protocol: To evaluate the inhibitory capacity of selected hits from DSF, SBVS and LBSS in vitro autophosphorylation kinase assays with γ-^32P-ATP were performed as previously described. Ligands were dissolved in 100% DMSO. […] Controls lacking ligands contained an equal concentration of DMSO. Inhibition of autophosphorylation was determined by incubating 0.12 mg/ml (≈4 μM) HK and up to 20 mM fragment in kinase buffer (50 mM Tris HCl, pH 8.5, 50 mM KCl, 5 mM MgCl2, 0.5 mM EDTA and 0.1 mM DTT). Autophosporylation reactions were initiated by addition of 0.1 μCi/μl γ-^32P-ATP containing from 0.03 to 0.06 μM ATP (final concentrations). Autophosphorylation was quenched with 2xSDS-PAGE sample buffer supplemented with 50 mM EDTA. Samples were applied without heating to 15% (w/v) Tris-glycine SDS-polyacrylamide gels. After electrophoresis, the bottoms of the gels were removed to lower the background from the unincorporated radiolabeled ATP. Gels were dried without staining on a Bio-Rad Gel Air drying system and the phosphorylated protein was quantified by phosphor-imaging. Prism GraphPad was used for curve fitting and statistical analysis.

[2] = DSM20231, strain DSM 20231, read-out: MIC S. aureus DSM 20231
[3] = DSM20044, strain DSM 20044, read-out: MIC S. epidermidis DSM 20044

Compound	IC50 (E. coli PhoR (PhoR^E); IC50 PhoR^E)	MIC (Staphylococcus aureus; [2])	MIC [1, 3]	MIC (Escherichia coli; strain CFT 073)	IC50 (S. aureus PhoR (PhoR^S); IC50 PhoR^S)	also measured
Nc1nc(-c2ccc(O)cc2)cs1 [F1.1]	–	–	–	–	–	IC50 (E. coli PhoR (PhoR^E); read-out: IC50 PhoR^E): > 2 mM; IC50 (S. pneumoniae WalK; read-out: IC50 WalK): > 2 mM; MBC (Staphylococcus aureus; DSM20231, read-out: MBC S. aureus DSM 20231): > 500 µg/mL; MBC (Escherichia coli; read-out: MBC E. coli CFT 073): > 500 µg/mL
Nc1nc(-c2ccc(Cl)cc2)cs1 [F1.2]	> 2 mM	> 500 µg/mL	> 500 µg/mL	> 500 µg/mL	–	IC50 (S. pneumoniae WalK; IC50 WalK): > 2 mM
Cc1ccc(-c2csc(N)n2)cc1 [F1.3]	> 2 mM	> 500 µg/mL	500 µg/mL (≈ 2630 µM)	> 500 µg/mL	–	IC50 (S. pneumoniae WalK; IC50 WalK): > 2 mM; MBC ([1]; DSM20044, strain DSM 20044): 500 µg/mL (≈ 2630 µM)
Nc1ncc(-c2ccc(Br)cc2)s1 [F1.4]	> 2 mM	> 500 µg/mL	> 500 µg/mL	> 500 µg/mL	–	IC50 (S. pneumoniae WalK; IC50 WalK): > 2 mM
Nc1nnc(-c2ccc(Br)cc2)o1 [F1.5]	> 2 mM	> 500 µg/mL	> 500 µg/mL	> 500 µg/mL	–	IC50 (S. pneumoniae WalK; IC50 WalK): > 2 mM
CCN(Cc1ccc(C(=O)OC)cc1)c1cccc(NC(C)=O)c1 [S1.1]	> 2 mM	> 500 µg/mL	> 500 µg/mL	> 500 µg/mL	> 2 mM	–
CC(=O)Nc1ccc(-c2ccc(F)cc2)cc1 [S1.2]	< 2 mM	> 500 µg/mL	> 500 µg/mL	> 500 µg/mL	–	IC50 (S. aureus PhoR (PhoR^S); read-out: IC50 PhoR^S): < 2 mM; inhibition at 2000 µM (S. aureus PhoR (PhoR^S)): > 75%; inhibition at 2000 µM (E. coli PhoR (PhoR^E)): > 75%
CC(=O)Nc1ccc(NC(=O)c2cccc(F)c2)cc1 [S1.3]	> 2 mM	> 500 µg/mL	> 500 µg/mL	> 500 µg/mL	> 2 mM	–
CC(=O)Nc1cccc(Cc2cccc(NC(C)=O)c2)c1 [S1.4]	> 2 mM	> 500 µg/mL	> 500 µg/mL	> 500 µg/mL	> 2 mM	–
CC(=O)Nc1ccc[n+](CC(=O)c2ccc(F)cc2)c1 [S1.5]	> 2 mM	> 500 µg/mL	> 500 µg/mL	> 500 µg/mL	> 2 mM	–
CC(=O)Nc1ccc(C(O)c2ccc(NC(C)=O)cc2)cc1 [S1.6]	> 2 mM	> 500 µg/mL	> 500 µg/mL	> 500 µg/mL	> 2 mM	–
CC(=O)Nc1cccc(OCc2ccc([N+](=O)[O-])cc2)c1 [S1.8]	> 2 mM	> 500 µg/mL	> 500 µg/mL	> 500 µg/mL	> 2 mM	–
CC(=O)Nc1cccc(S(=O)(=O)c2cccc(NC(C)=O)c2)c1 [S1.9]	> 2 mM	> 500 µg/mL	> 500 µg/mL	> 500 µg/mL	> 2 mM	–
CC(=O)Nc1ccc2c(c1)C(=Nc1ccc(F)cc1)c1ccccc1-2 [S1.10]	> 2 mM	> 500 µg/mL	> 500 µg/mL	> 500 µg/mL	> 2 mM	–
CC(=O)Nc1cccc(C=Cc2ccc([N+](=O)[O-])cc2)c1 [S1.11]	< 2 mM	> 500 µg/mL	> 500 µg/mL	> 500 µg/mL	–	IC50 (S. aureus PhoR (PhoR^S); read-out: IC50 PhoR^S): < 2 mM; inhibition at 2000 µM (S. aureus PhoR (PhoR^S)): > 75%; inhibition at 2000 µM (E. coli PhoR (PhoR^E)): > 75%
CC(=O)Nc1ccc(C(=O)C(O)c2ccc(NC(C)=O)cc2)cc1 (stereo not shown) [S1.12]	> 2 mM	> 500 µg/mL	> 500 µg/mL	> 500 µg/mL	> 2 mM	–
CC(C)(C)c1ccc(NS(=O)(=O)c2ccc(N)cc2)cc1 [S1.15]	> 2 mM	> 500 µg/mL	> 500 µg/mL	> 500 µg/mL	–	IC50 (S. aureus PhoR (PhoR^S); read-out: IC50 PhoR^S): < 2 mM; inhibition at 2000 µM (S. aureus PhoR (PhoR^S)): > 75%; inhibition at 2000 µM (E. coli PhoR (PhoR^E)): > 40%
CC(=O)Nc1cccc(OCOc2ccc([N+](=O)[O-])cc2)c1 [S1.16]	> 2 mM	> 500 µg/mL	> 500 µg/mL	> 500 µg/mL	> 2 mM	–
CC(=O)Nc1cccc(OCc2cccc([N+](=O)[O-])c2)c1 [S1.17]	> 2 mM	> 500 µg/mL	> 500 µg/mL	> 500 µg/mL	> 2 mM	–
COc1cc(NCc2ccccc2)ccc1NC(C)=O [S1.18]	> 2 mM	> 500 µg/mL	> 500 µg/mL	> 500 µg/mL	> 2 mM	–
CC(=O)NC(Cc1ccccc1)C(=O)Nc1cccc(C)c1 (stereo not shown) [S1.19]	> 2 mM	> 500 µg/mL	> 500 µg/mL	> 500 µg/mL	> 2 mM	–
CC(=O)Nc1ccc2c(c1)Cc1cc(Br)ccc1-2 [S1.20]	–	–	–	–	> 2 mM	IC50 (E. coli PhoR (PhoR^E); read-out: IC50 PhoR^E): > 2 mM; MIC (Staphylococcus aureus; DSM20231, read-out: MIC S. aureus DSM 20231): > 500 µg/mL; MIC ([1]; DSM20044, read-out: MIC S. epidermidis DSM 20044): > 500 µg/mL; MIC (Escherichia coli): > 500 µg/mL
O=C(NCc1cccc(Cl)c1)Nc1ccccc1 [S1.22]	> 2 mM	> 500 µg/mL	> 500 µg/mL	> 500 µg/mL	> 2 mM	–
CCC(c1cccc(Br)c1)C(C(C)=O)c1ccc(OC)cc1 (stereo not shown) [S1.23]	> 2 mM	> 500 µg/mL	> 500 µg/mL	> 500 µg/mL	> 2 mM	–
CCn1c2ccccc2c2cc(NC(C)=O)ccc21 [S1.24]	> 2 mM	> 500 µg/mL	> 500 µg/mL	> 500 µg/mL	> 2 mM	–
CC(=O)c1cccc(NC(=O)N(C)Cc2ccccc2)c1 [S1.25]	> 2 mM	> 500 µg/mL	> 500 µg/mL	> 500 µg/mL	> 2 mM	–
